Data reported in patent publication US11596633B2, “SHP2 inhibitor compositions and methods for treating cancer” (Revolution Medicines, Inc., priority 2017, dated 2023).

Key:
p-ERK1/2 in H358 cells = test: p-ERK AlphaLisa SureFire; type: cell-based, human; conditions: H358 cells (KRAS G12C)
Procedure: (§1) Cells were plated at ˜20×10^3 cells per well and following overnight incubation were washed with serum-free media. Cells were then incubated for one hour with increasing concentrations of the test article in serum-free media containing 0.2% BSA prior to termination of the assay and measurement of pERK levels in cellular lysates by AlphaLisa SureFire Ultra kit conducted according to the manufacturer's instructions.

RAS-GTP in H358 cells = test: RAS-GTP pulldown (Raf-RBD); type: cell-based, human
Procedure: To determine the effects of small molecules on levels of activated RAS-GTPase, cell lines of interest were cultured under standard 2D culture conditions. Cells were seeded and following overnight incubation incubated at 37° C. with vehicle (DMSO) or test article(s). After an appropriate incubation period, cells were washed and cell lysis buffer added to prepare a cell lysate. The levels of Ras-GTP in the lysates were determined using affinity purification of a Raf-RBD (Ras binding domain of Raf)/GTP-Ras complex. In one approach, the Pierce Active Ras Pulldown and Detection Kit was used. Briefly, clarified lysates (500 μg total protein, quantified by BCA) were mixed with glutathione resin, which had been preincubated with GST-Raf-RBD. The mixture was vortexed and incubated at 4° C. for 1 hour with gentle rocking. The resin was washed three times with lysis buffer and bound Ras-GTP eluted by addition of 2× reducing sample buffer. […]
To determine the effects of small molecules on levels of activated RAS-GTPase, cell lines of interest were cultured under standard 2D culture conditions. […] The levels of Ras-GTP in the lysates were determined using affinity purification of a Raf-RBD (Ras binding domain of Raf)/GTP-Ras complex. […] Briefly, clarified lysates (500 μg total protein, quantified by BCA) were mixed with glutathione resin which had been preincubated with GST-Raf-RBD. […]

NCI-H358 xenograft = test: NCI-H358 xenograft, alone and with trametinib (Example 7); conditions: for tumor growth inhibition, TGI: repeated daily dosing
Procedure: The effects of a SHP2 inhibitor on tumor cell growth in vivo were evaluated in the NSCLC H358 xenograft model using female athymic nude mice (6-8 weeks old). Mice were implanted with H358 tumor cells in 50% Matrigel (1×10^7 cells/animal) subcutaneously in the flank. Once tumors reached an average size of 200 mm^3 mice were randomized to treatment groups and administration of test article or vehicle (50 mM acetate buffer, pH 4.6 containing 10% captisol, unless otherwise indicated) initiated. […] Body weight and tumor volume (using calipers) was measured every other day until study endpoints.

pERK in NCI-H1838 cells = test: p-ERK AlphaLisa SureFire; type: cell-based; conditions: for p-ERK: NCI-H1838 (NF1 LOF)
Procedure: as §1

[1] = test system: RAS-GTP in NCI-H1838 cells; test: RAS-GTP pulldown (Raf-RBD); type: cell-based; conditions: NCI-H1838 (NF1 LOF)
Procedure: (§2) To determine the effects of small molecules on levels of activated RAS-GTPase, cell lines of interest were cultured under standard 2D culture conditions. Cells were seeded and following overnight incubation incubated at 37° C. with vehicle (DMSO) or test article(s). After an appropriate incubation period, cells were washed and cell lysis buffer added to prepare a cell lysate. The levels of Ras-GTP in the lysates were determined using affinity purification of a Raf-RBD (Ras binding domain of Raf)/GTP-Ras complex. In one approach, the Pierce Active Ras Pulldown and Detection Kit was used. Briefly, clarified lysates (500 μg total protein, quantified by BCA) were mixed with glutathione resin, which had been preincubated with GST-Raf-RBD. The mixture was vortexed and incubated at 4° C. for 1 hour with gentle rocking. The resin was washed three times with lysis buffer and bound Ras-GTP eluted by addition of 2× reducing sample buffer. Eluted proteins were separated by SDS-PAGE using a 4-15% Tris-glycine gel (BioRad). Proteins were transferred to a nitrocellulose membrane for western blot using an anti-Ras antibody (Thermofisher, 1:200) and a Licor IRDye-800 anti-mouse secondary antibody (1:20,000). The Licor Odyssey CLx was used for visualization.
as §2, with “resin” for “resin,”

SHP2 Tyr-542 and Tyr-580 = test: SHP2 tyrosine phosphorylation western blot; type: cell-based; conditions: 5 μM, 1 hour; MEFs, HEK293, H358; EGF or PDGF stimulated
Procedure: Cells (MEFs, HEK 293E, H358) were plated in 6-well plates at a density of 750,000 cells/well in low serum (0.1% FBS) media and allowed to grow overnight. […] Cells were stimulated with 50 ng/mL of EGF or PDGF for 5 minutes, washed with cold PBS, and 150 μL of lysis buffer (Thermo #1862301) with Halt Protease/Phosphatase inhibitor (Thermo #78440) was added. Cells were scraped, transferred to a cold Eppendorf tube and vortexed for 10 seconds. Lysates were spun at 4 C for 15 min at 13,000 rpm and transferred to a new tube. Lysate protein concentration was assessed using the BCA assay. Lysates (30 μg/lane) were run on a 4-15% Tris glycine gel and transferred to a nitrocellulose membrane using the iBlot2. Western blots were performed using phospho-SHP2 antibodies from Cell Signaling Technologies; […] (#3751) and […] (#3703) were both used at 1:1000 dilution in 5% BSA in TBS. Membranes were incubated with primary antibody overnight with gentle shaking at 4 C. Beta actin antibody (Cell Signaling Technologies #8457, 1:2000) was used as a loading control. The secondary antibody (Licor IRDye 800 CW anti-rabbit) was used at a 1:20000 dilution in 5% BSA in TBS for 1 hour shaking at room temperature. Blots were visualized using the Licor Odyssey Clx Imager.

NCI-H460 = test: 3D cell viability (CTG); type: cell-based; conditions: Homo sapiens; NCI-H460, KRAS Q61H, 3D culture
Procedure: (§3) To evaluate cell viability in 3D culture, cells in logarithmic growth phase were plated in growth medium containing 0.65% methylcellulose at an optimum seeding density. Cells were incubated overnight prior to treatment with different concentrations of the test article. Cells were cultured for an additional seven days and cell viability assessed using the CellTiterGlo™ (CTG) reagent, according to the manufacturer's instructions. In some instances, cells were grown in 3D culture as spheroids. Briefly, 2500 cells/well were seeded in round bottom ultra-low attachment 96-well plates (Corning) in growth media supplemented with 10% fetal bovine serum and 1% penicillin/streptomycin, and allowed to form spheroids for 72 hours at 37° C. in 5% CO2. […] Following drug exposure for five days, cell viability in spheroids was determined using the CellTiter-Glo assay kit.

SW900 = test: 3D cell viability (CTG); type: cell-based; conditions: Homo sapiens; SW900, KRAS G12V, 3D culture
Procedure: To evaluate cell viability in 3D culture, cells in logarithmic growth phase were plated in growth medium containing 0.65% methylcellulose at an optimum seeding density. Cells were incubated overnight prior to treatment with different concentrations of the test article. Cells were cultured for an additional seven days and cell viability assessed using the CellTiterGlo™ (CTG) reagent, according to the manufacturer's instructions. In some instances, cells were grown in 3D culture as spheroids. Briefly, 2500 cells/well were seeded in round bottom ultra-low attachment 96-well plates (Corning) in growth media supplemented with 10% fetal bovine serum and 1% penicillin/streptomycin, and allowed to form spheroids for 72 hours at 37° C. in 5% CO2. […] Following drug exposure for five days, cell viability in spheroids was determined using the CellTiter-Glo assay kit. […] After one day in culture, cells were treated with the test article, which was then replenished every three days. Cells were maintained in culture for 10 days until the control wells reached confluency at which time the cells were fixed and stained with crystal violet.

SNU-601 = test: 3D cell viability (CTG); type: cell-based; conditions: SNU-601, KRAS G12D, 3D culture
Procedure: as §3

MDA-MB-231 = test: 3D cell viability (CTG); type: cell-based; conditions: Homo sapiens; MDA-MB-231, KRAS G13D, 3D culture
Procedure: as §3

SW837 = test: 3D cell viability (CTG); type: cell-based; conditions: Homo sapiens; SW837, KRAS G12C, 3D culture
Procedure: as §3

SW948 = test: 3D cell viability (CTG); type: cell-based; conditions: Homo sapiens; SW948, KRAS Q61L, 3D culture
Procedure: as §3

NCI-H1944 = test: 3D cell viability (CTG); type: cell-based; conditions: Homo sapiens; NCI-H1944, KRAS G13D, 3D culture
Procedure: as §3

Structure (SMILES)	inhibition of p-ERK1/2 levels (p-ERK1/2 in H358 cells)	RAS-GTP accumulation resulting from MEK inhibition by trametinib (RAS-GTP in H358 cells; H358 (KRAS G12C), 6 hour and 24 hour)	tumor growth inhibition, TGI (NCI-H358 xenograft; 10 mg/kg PO) [%]	tumor growth inhibition, TGI (NCI-H358 xenograft; 30 mg/kg PO) [%]	tumor growth as compared to the vehicle control (NCI-H358 xenograft; single agent, Compound B 10 and 30 mg/kg, trametinib 1 mg/kg)	IC50 (pERK in NCI-H1838 cells; Homo sapiens, NCI-H1838, 1 h, read-out: geometric mean IC50 for reduction in pERK) [nM]	p-ERK (pERK in NCI-H1838 cells)	RAS-GTP levels [1]	phosphorylation levels of SHP2 Y580 (SHP2 Tyr-542 and Tyr-580)	IC50 (NCI-H460) [µM]	IC50 (SW900) [µM]	IC50 (SNU-601) [µM]	Ras activation (levels of Ras-GTP) (RAS-GTP in H358 cells; H358 cells)	IC50 (MDA-MB-231) [µM]	IC50 (SW837) [µM]	IC50 (SW948) [µM]	IC50 (NCI-H1944) [µM]	feedback-driven RAS-GTP accumulation ([1]; MEK inhibition by trametinib)
Cc1nc(N2CCC3(CC2)CO[C@@H](C)[C@H]3N)c(CO)nc1-c1cccc(Cl)c1Cl [Compound B]	concentration-dependent inhibition	suppressed	54	79	significant tumor growth inhibition	29	suppression	downregulation	decreases									
Nc1nc(N2CCC3(CCC[C@H]3N)CC2)cnc1Sc1ccnc(Cl)c1Cl [Compound A]	concentration-dependent inhibition						potently inhibited	inhibited		> 10	> 10	2.9	inhibited	> 10	0.3	> 10	> 10	suppressed this effect
